Structures are written as SMILES.

Test [1] in a line: The compound was tested for inhibitory activity against gp120 binding to CD4 of peripheral blood lymphocytes (PBL). Type of test: functional, Homo sapiens.
The subject of test [2] is CEM-SS. Put plainly: Inhibitory activity against cytopathic effect of HIV-IIIB strain in CEM-SS cells. Type of test: functional, cell-based. To be noted: Homo sapiens.
Test [3] deals with CEM-SS. In words: Inhibitory activity against cytopathic effect of VIHU(NSI) clinical isolate in CEM-SS cells. Type of test: functional, cell-based. The conditions noted are these: Homo sapiens.
Test [4] is described as follows: The compound was tested for inhibitory against fusion of HL-2/3 cells towards HeLa-CD4-LTR-beta-gal cells. Type of test: functional, cell-based, Homo sapiens.
For test [5], the system named is CEM-SS. Put plainly: The compound was tested for inhibition of HIV-1 attachment to CEM-SS cells. Type of test: functional, cell-based. The conditions noted are these: Homo sapiens.
The subject of test [6] is CEM-SS. In words: Inhibitory activity against cytopathic effect of HIV-1RF in CEM-SS cells. To be noted: Homo sapiens. Type of test: functional, cell-based.

In test [1], `CC(C)CCCC(C)[C@H]1CC[C@H]2[C@@H]3CCC4C[C@@H](CCC=C(c5cc(Cl)c(O)c(C(=O)O)c5)c5cc(Cl)c(O)c(C(=O)O)c5)CC[C@]4(C)[C@H]3CC[C@]12C` (stereo partly specified) yielded an IC50 of 7.8 µM. Besides, the EC50 in the test with CEM-SS [2] amounted to 3.4 µM; in the test with CEM-SS [3], 80.2 µM.

`CC(C)CCCC(C)[C@H]1CC[C@H]2[C@@H]3CCC4C[C@@H](CCC=C(c5cc(Cl)c(OCc6ccc(C(=O)O)cc6)c(C(=O)O)c5)c5cc(Cl)c(OCc6ccc(C(=O)O)cc6)c(C(=O)O)c5)CC[C@]4(C)[C@H]3CC[C@]12C` (stereo partly specified): the IC50 in test [4] came out at 2.7 µM; in the test on CEM-SS [5], 72 µM. Further, it took 0.55 µM to reach a half-maximal effect in the test on CEM-SS [6] (EC50).

Values taken from ChEMBL document CHEMBL1130780, “Synthesis of a cosalane analog with an extended polyanionic pharmacophore conferring enhanced potency as an anti-HIV agent” (Bioorg Med Chem Lett, 1998).
